Results on five molecules are retold here after patent US5861498A, “Nucleotides encoding immunophilin FKBP46 and fragments thereof” (Thomas Jefferson University, priority 1996, dated 1999).

As usually defined, the inhibition is how much of the control response was suppressed. A higher inhibition goes with strong suppression.

The target in data set [1] is T1, FKBP46 (Spodoptera frugiperda, UniProt Q26486).
T1 construct: Nuclear extract containing full-length FKBP46; made in house
T1 sequence (Q26486 1-412): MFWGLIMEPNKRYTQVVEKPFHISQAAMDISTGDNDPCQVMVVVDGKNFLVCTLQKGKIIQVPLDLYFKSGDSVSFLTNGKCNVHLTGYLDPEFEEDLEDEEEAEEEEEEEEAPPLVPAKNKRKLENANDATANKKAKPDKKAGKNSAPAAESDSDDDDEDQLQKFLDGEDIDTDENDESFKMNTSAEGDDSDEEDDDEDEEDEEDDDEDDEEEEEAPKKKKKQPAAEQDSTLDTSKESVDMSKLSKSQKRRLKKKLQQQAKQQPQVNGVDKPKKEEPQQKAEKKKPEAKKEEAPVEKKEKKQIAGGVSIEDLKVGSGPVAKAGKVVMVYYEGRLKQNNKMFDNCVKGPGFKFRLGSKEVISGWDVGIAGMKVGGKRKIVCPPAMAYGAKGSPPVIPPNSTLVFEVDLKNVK
Put plainly: [3H]Dihydro-FK506 binding assay, His-FKBP46 immobilized on Ni2+ affinity resin. Also noted: species or system Sf9 insect cell. On the procedure: (§1) FIGS. 3A and 3B show FK506 binding and Peptidylprolyl cis-trans isomerase activities of FKBP46. In FIG. 3A, purified His-FKBP46 immobilized on Ni^2+ affinity resin was incubated with [^3 H]dihydro-FK506 in the presence […] or absence of cold FK506. The numbers under each column represent different amounts of nuclear extracts in microliters from Sf9 cells--expressing His-FKBP46 bound to separate Ni^2+ affinity resins. Nuclear extracts from wild type (WT) baculovirus infected Sf9 cells (10 μl) were bound to Ni^2+ affinity resin and used as a control. The amount of radioactivity associated with each resin sample is represented in disintegrations/min. In FIG. 3B, time-dependant release of p-nitroanilide by chymotrypsin from trans N-succinyl-Ala-Leu-Pro-Phe-p-nitroanilide measured by absorbance at 400 nm. Curve A reflects the rate of release of p-nitroanilide in a reaction catalyzed by FKBP46. Curve B is the same as curve A but in the presence of 5 μM FK506. Curve C is the same but without FKBP46. […]
The radioactivity associated with FKBP46 was measured by scintillation counting. […] Chymotrypsin hydrolyzes the trans form to generate p-nitroanilide, which can be quantitated spectrophotometrically at 400 nm. […] From these curves, the specific activity of FKBP46 was calculated using the first order rate constant (S^-1), and the molar concentration of FKBP46 to be about 7.8×10^6 […]. […]

Data set [2] concerns the target T1, FKBP46. Kind of data set: Peptidylprolyl cis-trans isomerase assay, inhibition by FK506. The data set is classed as biochemical, Sf9 insect cell. Conditions: 5 μM FK506, 100 nM His-FKBP46, 15° C.; FIG. 3B curve B. How it is done: as §1, with “nm.” for “nm. Curve A reflects the rate of release of p-nitroanilide in a reaction catalyzed by FKBP46. Curve B is the same as curve A but in the presence of 5 μM FK506. Curve C is the same but without FKBP46.”
Peptidylprolyl cis-trans Isomerase Assay--Peptidylprolyl isomerase activity of FKBP46 was assayed as described previously (Harrison, R. K., and Stein, R. L. (1990) Biochemistry 29, 3813-3816 and Park, S. T., et al. (1992) J. Biol. Chem. 267, 3316-3324) with some modifications. […] The reaction was started by the addition of chymotrypsin (100 μg/ml final) (Sigma), and the release of p-nitroanilide by chymotrypsin was measured by recording the increase in absorbance at 400 nm using a Perkin Elmer λ 3B spectrophotometer connected to a chart recorder. […]

In data set [3] the test system is N-succinyl-Ala-Leu-Pro-Phe-p-nitroanilide. Conditions: literature value for comparison (ref 19); cited from earlier work.
The target in data set [4] is N-succinyl-Ala-Leu-Pro-Phe-p-nitroanilide.
For data set [5], the system named is N-succinyl-Ala-Leu-Pro-Phe-p-nitroanilide. Kind of data set: Peptidylprolyl cis-trans isomerase assay, specific activity of the immunophilin. Conditions: His-FKBP46 100 nM, substrate 75 μM, 15° C. The data set is classed as biochemical. On the procedure:
Peptidylprolyl cis-trans Isomerase Assay--Peptidylprolyl isomerase activity of FKBP46 was assayed as described previously (Harrison, R. K., and Stein, R. L. (1990) Biochemistry 29, 3813-3816 and Park, S. T., et al. (1992) J. Biol. Chem. 267, 3316-3324) with some modifications. His-FKBP46 (100 nM final) was incubated with the peptide substrate N-succinyl-Ala-Leu-Pro-Phe-p-nitroanilide (75 μM final) (Bachem, Switzerland) at 15° C. for 15 min. The reaction was started by the addition of chymotrypsin (100 μg/ml final) (Sigma), and the release of p-nitroanilide by chymotrypsin was measured by recording the increase in absorbance at 400 nm using a Perkin Elmer λ 3B spectrophotometer connected to a chart recorder.
The radioactivity associated with FKBP46 was measured by scintillation counting. […] Under these conditions, maximal binding was obtained when 10 μl of nuclear extracts containing recombinant His-FKBP46 were immobilized on Ni^2+ affinity resin (FIG. 3A, column 6). […] Chymotrypsin hydrolyzes the trans form to generate p-nitroanilide, which can be quantitated spectrophotometrically at 400 nm. […] From these curves, the specific activity of FKBP46 was calculated using the first order rate constant (S^-1), and the molar concentration of FKBP46 to be about 7.8×10^6 […]. […]

Take `C=CC[C@@H]1/C=C(\C)C[C@H](C)C[C@H](OC)[C@H]2O[C@@](O)(C(=O)C(=O)N3CCCC[C@H]3C(=O)O[C@H](/C(C)=C/[C@@H]3CC[C@@H](O)[C@H](OC)C3)[C@H](C)[C@@H](O)CC1=O)[C@H](C)C[C@@H]2OC` [FK506]: the “[3H]dihydro-FK506 binding to FKBP46 in the presence of excess cold FK506” value in data set [1] (5000-fold excess of cold FK506, comparable with mock purified wild type extract, FIG. 3A columns 3, 5, 7) is “minimal”. This molecule also had an inhibition at 5 µM in data set [2] of about 50%. As to `[3H]CC([3H])C[C@@H]1/C=C(\C)C[C@H](C)C[C@H](OC)[C@H]2O[C@@](O)(C(=O)C(=O)N3CCCC[C@H]3C(=O)O[C@H](/C(C)=C/[C@@H]3CC[C@@H](O)[C@H](OC)C3)[C@H](C)[C@@H](O)CC1=O)[C@H](C)C[C@@H]2OC` (stereo partly drawn) [[^3 H]dihydro-FK506], the “[3H]dihydro-FK506 binding to FKBP46 (radioactivity associated with resin)” value in data set [1] (50 nM [3H]dihydro-FK506, on ice 18 h, absence of cold FK506, FIG. 3A) is reported as “can bind specifically to FKBP46 in a dose-dependent manner”.

For the molecule “hFKBP12: human FK binding protein FKBP12, comparison immunophilin”, the specific activity result in data set [3] is reported as “about 4.3×10^6 s^-1. M^-1”.

In data set [4], recombinant His-FKBP46 had a peptidylprolyl cis-trans isomerase activity (chymotrypsin-coupled release of p-nitroanilide, absorbance at 400 nm) of 7.8e+06 s⁻¹ M⁻¹.

B1: FKBP46: novel Sf9 insect cell nuclear immunophilin, SEQ ID NO:2; tested as recombinant His-tagged protein (protein)
chain: MFWGLIMEPNKRYTQVVEKPFHISQAAMDISTGDNDPCQVMVVVDGKNFLVCTLQKGKIIQVPLDLYFKSGDSVSFLTNGKCNVHLTGYLDPEFEEDLEDEEEAEEEEEEEEAPPLVPAKNKRKLENANDATANKKAKPDKKAGKNSAPAAESDSDDDDEDQLQKFLDGEDIDTDENDESFKMNTSAEGDDSDEEDDDEDEEDEEDDDEDDEEEEEAPKKKKKQPAAEQDSTLDTSKESVDMSKLSKSQKRRLKKKLQQQAKQQPQVNGVDKPKKEEPQQKAEKKKPEAKKEEAPVEKKEKKQIAGGVSIEDLKVGSGPVAKAGKVVMVYYEGRLKQNNKMFDNCVKGPGFKFRLGSKEVISGWDVGIAGMKVGGKRKIVCPPAMAYGAKGSPPVIPPNSTLVFEVDLKNVK
modifications: His tag
notes: tested as recombinant His-tagged protein
Consider B1, for which the “specific activity (first order rate constant / molar concentration)” value in data set [5] is recorded as “about 7.8×10^6 s^-1. M^-1”.
